We go through 11 compounds from ChEMBL document CHEMBL1139951, “Synthesis and local anesthetic activity of fluoro-substituted imipramine and its analogues” (Bioorg Med Chem Lett, 2007).

The nature of series [1]: Dissociation constant, pKa by potentiometric titration method. The format is physicochemical.
The subject of series [2] is Sciatic nerve. Description: Anesthetic activity in toad sciatic nerves assessed as sciatic nerve block activity. Format: functional, Bufo bufo.
Series [3] relates to Sciatic nerve. Description: Anesthetic activity in toad sciatic nerves assessed as sciatic nerve block activity relative to Lidocaine. Details: unit not given here. Format: functional, Bufo bufo.
For series [4], the system named is Sciatic nerve. Put plainly: Anesthetic activity in toad sciatic nerves assessed as latent period of sciatic nerve block. The format is functional, Bufo bufo.

With `Fc1ccc2c(c1)N(CCCN1CCCC1)c1cc(F)ccc1CC2`, in series [1], the pKa (in general, the pH at which an ionisable group is half protonated) was 7.9.
Consider `CCN(CC)CC(=O)Nc1c(C)cccc1C.Cl`, for which the Activity in the series on Sciatic nerve [2] was found to be 0.019%; in the series with Sciatic nerve [3], 100. Besides, in the series with Sciatic nerve [4], the “Latent period of sciatic nerve block” value worked out at 37.2 min.
As to `CN(C)CCCN1c2cc(F)ccc2CCc2ccc(F)cc21`, in series [1], the pKa was determined as 7.7.
Compound `CCN(CC)CCCN1c2cc(F)ccc2CCc2ccc(F)cc21` returned a pKa in series [1] of 7.7.
Turning to `Cl.Fc1ccc2c(c1)N(CCCN1CCCCC1)c1cc(F)ccc1CC2`, the Activity in the series with Sciatic nerve [2] was determined as 0.039%; with Sciatic nerve [3], 48.7. The “Latent period of sciatic nerve block” value in the series on Sciatic nerve [4] turned out to be 39.8 min.
As for `CN(C)CCCN1c2cc(F)ccc2CCc2ccc(F)cc21.Cl`, the Activity with Sciatic nerve [2] was determined as 0.094%; with Sciatic nerve [3], 20.2. In addition, the “Latent period of sciatic nerve block” value in the series with Sciatic nerve [4] was found to be 30.7 min.
`Fc1ccc2c(c1)N(CCCN1CCOCC1)c1cc(F)ccc1CC2` showed a pKa in series [1] of 7.6.
On to `Cl.Fc1ccc2c(c1)N(CCCN1CCCC1)c1cc(F)ccc1CC2`, for which the Activity with Sciatic nerve [2] stood at 0.069%; in the series with Sciatic nerve [3], 27.5. Further, the “Latent period of sciatic nerve block” value in the series with Sciatic nerve [4] is given as 40.6 min.
Take `CCN(CC)CCCN1c2cc(F)ccc2CCc2ccc(F)cc21.Cl`: the Activity was 0.018% with Sciatic nerve [2] and 105.5 in the series with Sciatic nerve [3]. Also, the “Latent period of sciatic nerve block” value in the series on Sciatic nerve [4] is 38.2 min.
For the compound `Fc1ccc2c(c1)N(CCCN1CCCCC1)c1cc(F)ccc1CC2`, the pKa in series [1] stood at 7.6.
Take `Cl.Fc1ccc2c(c1)N(CCCN1CCOCC1)c1cc(F)ccc1CC2`: the results for the Activity in the series with Sciatic nerve [2] and in the series on Sciatic nerve [3] were 0.029% and 65.5, respectively. Also, the “Latent period of sciatic nerve block” value in the series on Sciatic nerve [4] turned out to be 37.3 min.
